Reference: publication PMC5637929, “RadH: A Versatile Halogenase for Integration into Synthetic Pathways” (Angewandte Chemie (International Ed. in English), 2017)

Key:
Experiment in all cases: Michaelis-Menten halogenation kinetics
RadH [1] = biological target: T1, RadH (Floropilus chiversii, UniProt C5H881, D465E/T501S); type: biochemical; details: kinetic assay conditions in supplement (Figures S4-S10); table prints D456E/T501S, text prints D465E/T501S throughout
T1 construct: recombinant, overproduced in E. coli, purified
Description: (§1) Michaelis-Menten halogenation kinetics on RadH

RadH [2] = biological target: T2, RadH (Floropilus chiversii, UniProt C5H881); type: biochemical; details: kinetic assay conditions in supplement (Figures S4-S10)
T2 construct: recombinant, overproduced in E. coli, purified
Description: as §1

[3] = system: O=c1cc(-c2ccccc2)oc2cc(O)ccc12; type: biochemical, Floropilus chiversii; details: kinetic assay conditions in supplement (Figures S4-S10)
Description: as §1

[4] = table prints D456E/T501S, text prints D465E/T501S throughout

T1 sequence (C5H881 whole entry D465E/T501S): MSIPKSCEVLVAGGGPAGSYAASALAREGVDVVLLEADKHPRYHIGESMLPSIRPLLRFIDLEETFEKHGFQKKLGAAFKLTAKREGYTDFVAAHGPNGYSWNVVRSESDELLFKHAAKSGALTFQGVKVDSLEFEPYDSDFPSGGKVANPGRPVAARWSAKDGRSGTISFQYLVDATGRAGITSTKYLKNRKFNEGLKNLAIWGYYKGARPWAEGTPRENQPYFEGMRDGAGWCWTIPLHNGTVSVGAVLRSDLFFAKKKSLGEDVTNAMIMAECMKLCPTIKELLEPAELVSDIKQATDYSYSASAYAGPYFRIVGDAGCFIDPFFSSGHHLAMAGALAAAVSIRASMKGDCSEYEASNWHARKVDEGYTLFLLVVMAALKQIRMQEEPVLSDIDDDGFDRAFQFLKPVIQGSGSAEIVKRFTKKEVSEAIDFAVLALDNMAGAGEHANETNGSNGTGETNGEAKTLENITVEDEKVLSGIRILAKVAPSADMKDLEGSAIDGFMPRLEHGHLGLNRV
T2 sequence (C5H881 whole entry): as the sequence (C5H881 whole entry D465E/T501S) above, with E465D, S501T counted along it

Molecule | Km (RadH [1]) [µM] | Km (RadH [2]) [µM] | also measured
Oc1ccc2cnccc2c1 [compound 6, 6-hydroxyisoquinoline] | 268 ± 10 | 277 ± 3 | –
RadH (Floropilus chiversii) | – | – | Km [3]: 347 ± 2 µM; kcat [3]: 0.000533 ± 5e-05 s⁻¹; kcat/Km [3]: 1.53 ± 0.15 M⁻¹ s⁻¹
O=c1c(-c2ccc(O)cc2)coc2cc(O)ccc12 [compound 14, 14] | 315 ± 1 | 281 ± 2 | –
O=c1ccc2ccc(O)cc2o1 [compound 8, 7-hydroxycoumarin] | 465 ± 4 | 379 ± 5 | –
RadH (Floropilus chiversii; D465E/T501S) | – | – | Km [3, 4]: 383 ± 4 µM; kcat [3, 4]: 0.000517 ± 3.33e-05 s⁻¹; kcat/Km [3, 4]: 1.35 ± 0.0833 M⁻¹ s⁻¹
O=c1cc(C(F)(F)F)c2ccc(O)cc2o1 [compound 10, 10] | – | 309 ± 19 | –
Cc1cc(=O)oc2cc(O)ccc12 [compound 11, 11] | – | 364 ± 18 | –
